Tested on: T1, native peroxidase (horseradish peroxidase)
T1 construct: gene PRXC1A
Conditions: free enzyme; phenol varied; 4-aminoantipyrine 0.3 mmol/L, hydrogen peroxide 4.68 mmol/L; 0.1 M phosphate-buffered saline pH 7.2; 24 °C

With `Oc1ccccc1` [phenol] the Km was 994 µM.
